Reference: US20030087906A1, “NITROGEN SUBSTITUTED BIARYL PURINE DERIVATIVES AS POTENT ANTIPROLIFERATIVE AGENTS” (priority 2001, published 2003)
Several values for one entry are separate records, joined by “and”; a condition that tells them apart may be missing. Equal entries are not always repeated. Entries after “also recorded” stand apart in the source; their conditions may differ.

Columns and labels:
HeLa S-3 cells = assay: Inhibition of cell growth of HeLa cells (SRB); format: cell-based, human; conditions: 2 days of treatment, replicate experiments
Method: Growth inhibition (GI50) values were measured with HeLa S-3 cells selected for growth on plastic. […] One day later, a control plate was fixed by addition of TCA to 5%. After five rinses with tap water the plate was air dried and stored at 4° C. Test compounds were added to the remaining plates at 10-fold dilutions between 0.01 and 100 μM. Two days later all plates were fixed as described above. Cells were then stained by the addition of 100 μl per well of 0.4% sulforhodamine B (SRB) in 1% acetic acid for 30 min at 4° C. Wells were then quickly rinsed 5×with acetic acid (1%) and allowed to air dry. The SRB was then solubilized by the addition of 100 μl per well of unbuffered 10 mM Tris base. Dye was quantified by measuring absorbance at 490 nm on a Molecular Devices kinetic microplate reader. Growth at each inhibitor concentration relative to the untreated control was calculated according to the following equation: percent growth=100×(T−To)/(C−To), where T was the average optical density (OD) of the test wells after 2 days of treatment, To was the average OD of the wells in the control plate on day 0 and C was the average OD of untreated wells. Plots of percent growth versus inhibitor concentration were used to determine the GI50.

CyclinA/cdk2 = CyclinA/cdk2 (Homo sapiens, UniProt P24941); assay: CyclinA/cdk2 protein kinase assay (histone H1 phosphorylation); conditions: IC50 CyclinA/cdk2, complex immunopurified from HeLa cells; 15 μM ATP; replicate experiments
CyclinE/cdk2 = CyclinE/cdk2 (Homo sapiens, UniProt P24941); assay: CyclinE/cdk2 protein kinase assay (histone H1 phosphorylation); conditions: IC50 CyclinE/cdk2, complex immunopurified from HeLa cells; 15 μM ATP; replicate experiments
[1] = tested on: Tumor Cells in Hollow Fibers; assay: NCI Hollow Fiber Assay (in vivo evaluation); conditions: for IP Score: IP fibers; for SC score: SC fibers
CyclinB/cdk1 = target: T1, CyclinB/cdk1 (Homo sapiens, UniProt P06493); assay: CyclinB/cdk1 protein kinase assay (histone H1 phosphorylation); format: biochemical; conditions: complex immunopurified from HeLa cells; 15 μM ATP; replicate experiments
T1 construct: Monoclonal antibody against cyclinB (GNS1) is added to the supernatant; endogenous in cells
T1 sequence (P06493 whole entry): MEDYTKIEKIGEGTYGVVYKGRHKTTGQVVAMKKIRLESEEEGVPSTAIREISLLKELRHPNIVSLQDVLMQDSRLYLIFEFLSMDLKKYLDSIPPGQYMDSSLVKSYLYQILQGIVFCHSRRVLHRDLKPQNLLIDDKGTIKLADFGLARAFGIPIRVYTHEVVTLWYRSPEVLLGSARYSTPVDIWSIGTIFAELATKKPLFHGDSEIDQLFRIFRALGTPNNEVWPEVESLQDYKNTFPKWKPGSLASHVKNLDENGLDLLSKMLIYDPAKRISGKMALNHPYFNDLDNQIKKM
T1 sequence (P14635 whole entry partner): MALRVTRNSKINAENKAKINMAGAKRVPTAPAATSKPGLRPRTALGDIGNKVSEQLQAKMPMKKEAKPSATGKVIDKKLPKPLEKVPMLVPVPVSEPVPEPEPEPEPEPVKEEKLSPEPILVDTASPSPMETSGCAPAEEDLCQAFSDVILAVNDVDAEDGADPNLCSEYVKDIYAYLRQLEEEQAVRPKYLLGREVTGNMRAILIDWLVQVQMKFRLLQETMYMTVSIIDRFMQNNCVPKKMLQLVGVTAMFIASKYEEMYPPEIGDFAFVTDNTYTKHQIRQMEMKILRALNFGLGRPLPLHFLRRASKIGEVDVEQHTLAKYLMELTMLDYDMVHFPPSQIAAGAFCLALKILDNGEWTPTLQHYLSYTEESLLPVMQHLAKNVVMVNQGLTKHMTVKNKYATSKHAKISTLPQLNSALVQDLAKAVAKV
Method: HeLa cells are blocked at the G1/S border by culturing in the presence of 2 mM thymidine for 20 h. The cells are then rinsed 3×in phosphate buffered saline and resuspended in regular medium. After 4 h of culture, the mitotic blocker, nocodazole is added to a final concentration of 75 ng/ml. […] The lysate is then clarified by centrifugation at 10,000×g for 10 min. The supernatant is collected and diluted 1:5 with Lysis Buffer. Monoclonal antibody against cyclinB (GNS1) is added to the supernatant to a final concentration of 5 μg/ml and shaken at 4° C. for 2 h. The immune complexes are then collected by the addition of 200 μl of protein agarose beads for 1 h. The beads are washed 4×in lysis buffer and 1×in kinase assay buffer.
Duplicate assays were performed at each concentration.

| SMILES | melting point | GI50 (HeLa S-3 cells; Homo sapiens, HeLa S3, 48 h) [nM] | IC50 (CyclinA/cdk2) | IC50 (CyclinE/cdk2) | also measured |
| --- | --- | --- | --- | --- | --- |
| N[C@H]1CC[C@H](Nc2nc(NCc3ccc(-c4ccccc4)cc3)c3ncn(C4CCCC4)c3n2)CC1 [Compound 144] | 144 to 146 °C | – | – | – | – |
| CC(=O)NCCCNc1nc(NCc2ccc(-c3ccccc3)cc2)c2ncn(C(C)C)c2n1 [Compound 212] | 106 to 107 °C | 5000 | – | – | – |
| COC(=O)c1ccc(-c2ccc(CNc3nc(N[C@H]4CC[C@H](NC(C)=O)CC4)nc4c3ncn4C(C)C)cc2)cc1 [Compound 117] | 247 to 250 °C | – | > 10 µM | 3000 nM | – |
| CC(=O)N[C@H]1CC[C@H](Nc2nc(NCc3ccc(-c4cc(C)cc(C)c4)cc3)c3ncn(C(C)C)c3n2)CC1 [Compound 150] | 207 to 210 °C | 300 | – | – | – |
| CCn1cnc2c(NCc3ccc(-c4ccccc4)cc3)nc(N[C@H]3CC[C@H](N)CC3)nc21 [Compound 137] | 175 to 182 °C | – | – | – | – |
| COc1ccc(OC)c(-c2ccc(CNc3nc(N[C@H]4CC[C@H](NC(C)=O)CC4)nc4c3ncn4C(C)C)cc2)c1 [Compound 154] | 185 to 192 °C | 600 | – | – | GI50 (HeLa S-3 cells): 900 nM |
| CC(=O)N[C@H]1CC[C@H](Nc2nc(NCc3ccc(-c4cccs4)nc3)c3ncn(C(C)C)c3n2)CC1 [Compound 200] | 206 to 208 °C | 300 | – | – | GI50 (HeLa S-3 cells): 200 nM |
| CC(C)n1cnc2c(NCc3ccc(-c4ccsc4)nc3)nc(N[C@H]3CC[C@H](N)CC3)nc21 [Compound 123] | 78 to 81 °C | – | 0.2 µM | 40 nM | GI50 (HeLa S-3 cells): < 1 nM and 0.1 nM |
| CC(C)n1cnc2c(NCc3ccc(-c4ccccn4)nc3)nc(N[C@H]3CC[C@H](N)CC3)nc21 [Compound 93] | – | – | 0.2 µM and 0.3 µM | 90 nM and 100 nM | Cell Types Killed [1]: OVCAR-3; IP Score [1]: 22; SC score [1]: 8; GI50 (HeLa S-3 cells): 300 nM; IC50 (CyclinB/cdk1): 900 nM |
| CC(=O)N[C@H]1CC[C@H](Nc2nc(NCc3ccc(-c4ccccn4)nc3)c3ncn(C(C)C)c3n2)CC1 [Compound 94] | – | 100 | 0.6 µM and 0.2 µM | 300 nM | Cell Types Killed [1]: COLO205,; also recorded: OVCAR-3, H522; IP Score [1]: 22; SC score [1]: 2; IC50 (CyclinB/cdk1): 400 nM |
| CCCn1cnc2c(NCc3ccc(-c4ccccc4)cc3)nc(N[C@H]3CC[C@H](N)CC3)nc21 [Compound 142] | 133 to 138 °C | – | – | – | – |
| CC(=O)N[C@H]1CC[C@H](Nc2nc(NCc3ccc(-c4ccccc4)cc3)c3ncn(C(C)C)c3n2)CC1 [Compound 76] | 224 to 225 °C | – | 12 µM and 11 µM and 3 µM | 3000 nM and 5000 nM and 2000 nM | IC50 (CyclinB/cdk1): 6000 nM |
| CC(=O)N[C@H]1CC[C@H](Nc2nc(NCc3cccc(-c4ccccc4)c3)c3ncn(C(C)C)c3n2)CC1 [Compound 135] | 183 to 185 °C | – | – | – | – |
| C=CCn1cnc2c(NCc3ccc(-c4ccccc4)cc3)nc(N[C@H]3CC[C@H](N)CC3)nc21 [Compound 146] | 111 to 114 °C | – | – | – | – |
| CCCN[C@H]1CC[C@H](Nc2nc(NCc3ccc(-c4ccc(C)s4)cc3)c3ncn(C(C)C)c3n2)CC1 [Compound 159] | 150 to 155 °C | – | – | – | – |
| CC(C)n1cnc2c(NCc3ccc(-c4cccnc4)cc3)nc(N[C@H]3CC[C@H](N)CC3)nc21 [Compound 103] | – | – | 0.6 µM and 0.7 µM | 200 nM | Cell Types Killed [1]: OVCAR 3,; also recorded: OVCAR 5, H522,; also recorded: MDA-MB-435,; also recorded: SF295; IP Score [1]: 38; SC score [1]: 6; IC50 (CyclinB/cdk1): 1000 nM |
| COc1cccc(-c2ccc(CNc3nc(N[C@H]4CC[C@H](NC(C)=O)CC4)nc4c3ncn4C(C)C)cn2)c1 [Compound 194] | 161 to 163 °C | 60 | – | – | GI50 (HeLa S-3 cells): 40 nM |

Further lines, with some results ahead:

| melting point | GI50 (HeLa S-3 cells; Homo sapiens, HeLa S3, 48 h) [nM] | IC50 (CyclinA/cdk2) | IC50 (CyclinE/cdk2) | SMILES | also measured |
| --- | --- | --- | --- | --- | --- |
| 194 to 197 °C | 3000 | 3 µM | 400 nM | COC(=O)c1ccc(-c2ccc(CNc3nc(N[C@H]4CC[C@H](N)CC4)nc4c3ncn4C(C)C)cc2)cc1 [Compound 115] | – |
| 246 to 249 °C (dec.) | > 10000 | 3 µM | 700 nM | CC(C)n1cnc2c(NCc3ccc(-c4ccc(C(=O)O)cc4)cc3)nc(N[C@H]3CC[C@H](N)CC3)nc21 [Compound 114] | – |
| 200 to 206 °C | – | – | – | CC(=O)N[C@H]1CC[C@H](Nc2nc(NCc3ccc(-c4cccc(CN)c4)cc3)c3ncn(C(C)C)c3n2)CC1 [Compound 223] | – |
| 344 to 347 °C | > 10000 | > 10 µM | > 10000 nM | CC(=O)N[C@H]1CC[C@H](Nc2nc(NCc3ccc(-c4ccc(C(=O)O)cc4)cc3)c3ncn(C(C)C)c3n2)CC1 [Compound 116] | – |
| 86 to 90 °C | – | – | – | Cc1cc(C)cc(-c2ccc(CNc3nc(N[C@H]4CC[C@H](N)CC4)nc4c3ncn4C(C)C)cc2)c1 [Compound 149] | – |
| 205 to 208 °C | – | 6 µM | 1000 nM | CC(C)n1cnc2c(NCc3ccc(-c4cccc(C(=O)O)c4)cc3)nc(N[C@H]3CC[C@H](N)CC3)nc21 [Compound 118] | – |
| 196 to 200 °C | – | > 10 µM | 4000 nM and 14000 nM | CC(C)n1cnc2c(NCc3ccc(-c4ccccc4)cc3)nc(N[C@H]3CC[C@H](O)CC3)nc21 [Compound 77] | IC50 (CyclinB/cdk1): > 10000 nM |
